Results: ChEMBL document CHEMBL3507680, “University of Dundee, Gates Library screen for HepG2 cell viability”

Experiment: Human HepG2 cell viability assay in 384 well format
Assay type: toxicity, cell-based
Set-up: dose 125 nL, time 70.5 hour; concentration not given beside the values
Conditions: HepG2 cells, read-out: Inhibition

O=C(NCCN1CCOCC1)N1CCN(c2ccccc2)CC1
cytotoxicity at 70.5 h: -10.1%

O=C1CC(N(C(=O)c2ccc(Oc3ccccc3)cc2)C2CC2)C(=O)N1 (stereo not drawn)
cytotoxicity at 70.5 h: -4.82%

O=C(c1cnn(-c2ccccc2)c1)N1CCN(c2cnccn2)CC1
cytotoxicity at 70.5 h: -15.3%

CCS(=O)(=O)Cc1ccn(-c2cccc(F)c2)n1
cytotoxicity at 70.5 h: -3.75%

COc1ccc(C(=O)N(C2CC2)C2CC(=O)NC2=O)cc1 (stereo not drawn)
cytotoxicity at 70.5 h: -2.33%

CN(C)C(=O)CCS(=O)(=O)Cc1ccn(-c2cccc(F)c2)n1
cytotoxicity at 70.5 h: 4.33%

CC(C)c1nc(C2CCCN(C(=O)CN(C)S(C)(=O)=O)C2)no1 (stereo not drawn)
cytotoxicity at 70.5 h: 5.74%

CCn1nc(C)c(CNC(=O)NCC(C)(O)c2ccsc2)c1C (stereo not drawn)
cytotoxicity at 70.5 h: -8.94%

Cn1ncc(C(=O)OCC2CCN(c3ccccc3)C2)c1C(F)F (stereo not drawn)
cytotoxicity at 70.5 h: -3.5%

CC(C)NC(=O)CCNC(=O)Nc1cnn(-c2ccccc2F)c1
cytotoxicity at 70.5 h: -0.437%

O=C(Nc1cnn(-c2ccccc2Cl)c1)N[C@@H]1C=C[C@H](CO)C1
cytotoxicity at 70.5 h: -5.42%

CC1CN(S(=O)(=O)c2ccc(F)cc2)c2cccnc2O1 (stereo not drawn)
cytotoxicity at 70.5 h: 1.22%

Cc1ccc(S(=O)(=O)N2CC(C)Oc3ncccc32)c(F)c1 (stereo not drawn)
cytotoxicity at 70.5 h: -7.65%

CC(C)(C(=O)NCCC(=O)O)c1cccc(Br)c1
cytotoxicity at 70.5 h: -12.3%

COC(=O)C(O)C1CCN(CCc2ccncc2)CC1 (stereo not drawn)
cytotoxicity at 70.5 h: 9.73%

COC(=O)C(O)C1CCN(CCc2ccccn2)CC1 (stereo not drawn)
cytotoxicity at 70.5 h: -1.57%

COC1CCN(CCNC(=O)C2CCCCC2)CC1
cytotoxicity at 70.5 h: -7.3%

CCOC(=O)C1CCN(C(=O)CN2CCCC2c2ccccc2C)CC1 (stereo not drawn)
cytotoxicity at 70.5 h: -10.7%

CCOC(=O)C1CCN(C(=O)CN2CCCC2c2cc(C)no2)CC1 (stereo not drawn)
cytotoxicity at 70.5 h: -17.8%

COC(=O)C(O)C1CCN(CCc2ccc(C)cc2)CC1 (stereo not drawn)
cytotoxicity at 70.5 h: 9.49%

CCS(=O)(=O)CC(=O)N1CCCC(c2noc(C(C)C)n2)C1 (stereo not drawn)
cytotoxicity at 70.5 h: 8.9%

CCC(NC(=O)CN(C)Cc1ccc(C)o1)c1ccc(C)cc1 (stereo not drawn)
cytotoxicity at 70.5 h: -10.3%

O=C(CCCc1ccccn1)N1CCC(n2cccc2)CC1
cytotoxicity at 70.5 h: -1.32%

COCCOCCNC(=O)N1CCN(c2ccccc2C#N)CC1
cytotoxicity at 70.5 h: -2.61%

CC(C)c1nc(C2CCCN(c3ncccn3)C2)no1 (stereo not drawn)
cytotoxicity at 70.5 h: -10.3%

O=C(NCc1ccccn1)N1CC=C(c2ccccc2)CC1
cytotoxicity at 70.5 h: -16.2%

O=C(NCC(O)c1ccc(F)cc1F)c1ccccc1F (stereo not drawn)
cytotoxicity at 70.5 h: -12.6%

CN(C)CCOc1ccc(CNC(=O)c2cccc(Cl)c2Cl)cc1
cytotoxicity at 70.5 h: 8.38%

Cn1cnc(S(=O)(=O)Nc2cc(C(N)=O)ccc2Cl)c1
cytotoxicity at 70.5 h: -8.58%

COc1c(CNCc2ccccc2CO)c(C)nn1C
cytotoxicity at 70.5 h: -5.09%

CCCNC(=O)CN1CCC(NCc2c(C)nn(C)c2OC)CC1
cytotoxicity at 70.5 h: -0.725%

O=C(NCc1ccccc1CO)Nc1ccc2c(c1)CCC2
cytotoxicity at 70.5 h: -1.72%

CNC(=O)c1cccc(CCNS(C)(=O)=O)c1
cytotoxicity at 70.5 h: -2.35%

CC(C)c1nnc2n1CC(CNCc1ccc3c(c1)OCCO3)CC2 (stereo not drawn)
cytotoxicity at 70.5 h: -3.48%

CC(C)c1cnc(CN(C)C2CCN(CCc3ccncc3)C2)o1 (stereo not drawn)
cytotoxicity at 70.5 h: 18.9%

COCCCN(Cc1ccncc1)c1cc(C)ncn1
cytotoxicity at 70.5 h: 6.24%

Cc1cc(NCCNS(=O)(=O)c2cccc(Cl)c2)nc(C)n1
cytotoxicity at 70.5 h: -1%

COc1ccc(F)cc1C[S+]([O-])CC(=O)NCC(C)C (stereo not drawn)
cytotoxicity at 70.5 h: -0.815%

O=C(Cc1csc(-c2ncccn2)n1)N1CCN2CCCCC2C1 (stereo not drawn)
cytotoxicity at 70.5 h: 7.23%

CCC1CCCCN1Cc1ncc(-c2ccc(OC)cc2)o1 (stereo not drawn)
cytotoxicity at 70.5 h: 18.3%

CCc1ncc2c(n1)CN(CCCOc1ccc(C#N)cc1)CC2
cytotoxicity at 70.5 h: -0.432%

COCCNC(=O)C1CCCN1S(=O)(=O)c1sc(=O)[nH]c1C (stereo not drawn)
cytotoxicity at 70.5 h: -6.44%

Cc1nnc(CN2CCC(Oc3ccc(F)cc3)CC2)o1
cytotoxicity at 70.5 h: 0.0555%

CCCS(=O)(=O)NCC(C)c1ccc(F)c(F)c1 (stereo not drawn)
cytotoxicity at 70.5 h: 6.33%

CNC(=O)c1cccc(CCNc2ccc(C#N)cn2)c1
cytotoxicity at 70.5 h: 0.174%

COCc1csc(NC(=O)NCc2ccc(C)s2)n1
cytotoxicity at 70.5 h: 1.09%

COc1ccc(F)cc1C[S+]([O-])CC(=O)NCc1ccccc1 (stereo not drawn)
cytotoxicity at 70.5 h: -4.53%

Cc1nsc(NCCNS(=O)(=O)c2ccccc2)n1
cytotoxicity at 70.5 h: -1.39%

O=C(Nc1cccc(C(F)F)c1)N[C@@H]1C=C[C@H](CO)C1
cytotoxicity at 70.5 h: 2.83%

COc1cccc2[nH]cc(CCNC(=O)N3CCOCC3C3CC3)c12 (stereo not drawn)
cytotoxicity at 70.5 h: 23.2%

CNC(=O)c1cccc(CCNc2ccccn2)c1
cytotoxicity at 70.5 h: -0.207%

Cc1nc(C)n(CC2CCCCN2CC(=O)NCc2ccccn2)n1 (stereo not drawn)
cytotoxicity at 70.5 h: 2.56%

c1cncc(CN(Cc2ccc3c(c2)OCCO3)CC2CCCO2)c1 (stereo not drawn)
cytotoxicity at 70.5 h: 25.2%

OCC1CCCN1c1cc(NCCc2nccs2)ncn1 (stereo not drawn)
cytotoxicity at 70.5 h: 0.047%

Cc1nc(C)n(CC2CCCN2CC(=O)Nc2ccncc2)n1 (stereo not drawn)
cytotoxicity at 70.5 h: -4.71%

Cc1cc(C(=O)CN(Cc2cccnc2)CC2CCCO2)c(C)[nH]1 (stereo not drawn)
cytotoxicity at 70.5 h: -15.9%

OCC1CCCN1c1cc(NCc2ccccn2)ncn1 (stereo not drawn)
cytotoxicity at 70.5 h: 0.0157%

CC(C)c1nn(C)c(N2CCOCC2)c1CNCc1nncn1C
cytotoxicity at 70.5 h: 0.87%

Cc1noc(C)c1CNCc1c(C(C)C)nn(C)c1N1CCOCC1
cytotoxicity at 70.5 h: -10.5%

Cc1ccsc1CNCc1c(C(C)C)nn(C)c1N1CCOCC1
cytotoxicity at 70.5 h: -20.5%

O=C(CCc1ccsc1)N1CCCC(N2CCNC2=O)C1 (stereo not drawn)
cytotoxicity at 70.5 h: -10.5%

CN(C)C(=O)C1CCCN1CCCNC(=O)c1ccccc1Cl (stereo not drawn)
cytotoxicity at 70.5 h: 4.52%

Cc1cc(N2CCC(N(C)C(=O)c3cccs3)CC2)nc(C)n1
cytotoxicity at 70.5 h: -18.8%

Cc1cc(C)n(CC2CCCN2C(=O)c2ccc3c(c2)OCCO3)n1 (stereo not drawn)
cytotoxicity at 70.5 h: -12.8%

Cc1cnn(CC2CCCCN2C(=O)c2ccc3c(c2)nnn3C)c1 (stereo not drawn)
cytotoxicity at 70.5 h: -1.73%

CSCC(CCO)NC(=O)Nc1cc(F)ccc1C (stereo not drawn)
cytotoxicity at 70.5 h: 10.3%

O=C(NCC1CC1)C1CSCN1S(=O)(=O)c1cc(F)cc(F)c1 (stereo not drawn)
cytotoxicity at 70.5 h: -15.2%

c1ccc(-c2cnc(CN(Cc3cccnc3)CC3CCCO3)o2)cc1 (stereo not drawn)
cytotoxicity at 70.5 h: -7.3%

Cc1cccc(CC(=O)N2CCOCC2c2c(C)n[nH]c2C)c1 (stereo not drawn)
cytotoxicity at 70.5 h: -18.3%

Cc1ccc(CC(=O)N2CCOCC2c2c(C)n[nH]c2C)cc1 (stereo not drawn)
cytotoxicity at 70.5 h: -21.7%

Cc1n[nH]c(C)c1C1COCCN1C(=O)Cc1ccccc1F (stereo not drawn)
cytotoxicity at 70.5 h: -0.503%

Cc1csc(N2CCN(Cc3nccn3C)CC2C)n1 (stereo not drawn)
cytotoxicity at 70.5 h: -16.3%

CC(C)(C)c1cnc(CN(Cc2cccnc2)CC2CCCO2)o1 (stereo not drawn)
cytotoxicity at 70.5 h: -12.3%

COC(C)(C)CNC(=O)N1CCCC1c1c(C)n[nH]c1C (stereo not drawn)
cytotoxicity at 70.5 h: -13.9%

CCN1CCCC1CN(CCN(C)C)S(=O)(=O)c1ccccc1C#N (stereo not drawn)
cytotoxicity at 70.5 h: 29.4%

Cc1ccc(CNCC2CCN(CCO)CC2)cc1
cytotoxicity at 70.5 h: 39.2%

CCOC(=O)N1CCN(C(=O)c2sc(-c3ccccc3)nc2C)CC1
cytotoxicity at 70.5 h: 48.7%

Cc1ccc(C(=O)NCC2Cc3ccccc3O2)cc1S(C)(=O)=O (stereo not drawn)
cytotoxicity at 70.5 h: -1.47%

CC(=O)c1ccc(C(=O)NCC2Cc3ccccc3O2)s1 (stereo not drawn)
cytotoxicity at 70.5 h: 23.7%

CCS(=O)(=O)c1ccccc1C(=O)NCC1Cc2ccccc2O1 (stereo not drawn)
cytotoxicity at 70.5 h: -3.88%

CC(C)S(=O)(=O)c1ccccc1C(=O)NCC1Cc2ccccc2O1 (stereo not drawn)
cytotoxicity at 70.5 h: -1.85%

Cc1ccc(C(=O)N2CCCC(CNS(=O)(=O)C(C)C)C2)cc1 (stereo not drawn)
cytotoxicity at 70.5 h: -3.09%

Cc1nccn1-c1cc(CNC(=O)C2CCC(=O)NC2)ccn1 (stereo not drawn)
cytotoxicity at 70.5 h: 12.3%

NC(=O)c1ccc(CNCC2CCN(CCO)CC2)cc1
cytotoxicity at 70.5 h: -5.52%

CC(Oc1ccccc1C(F)(F)F)C(=O)NCCNC(=O)C1CC1 (stereo not drawn)
cytotoxicity at 70.5 h: -6.09%

COc1c(C2CCCN2C(=O)c2ccoc2)c(C)nn1C (stereo not drawn)
cytotoxicity at 70.5 h: 13.3%

Cc1cc(NC(=O)CN2CCCC2c2noc(C3CC3)n2)on1 (stereo not drawn)
cytotoxicity at 70.5 h: -7.03%

Cc1nnc(NC(=O)CN2CCCC2c2noc(C3CC3)n2)s1 (stereo not drawn)
cytotoxicity at 70.5 h: 21.8%

O=S1(=O)CCN(c2nc(C3CC3)ns2)CC1
cytotoxicity at 70.5 h: -5.98%

C1CN(c2nc(C3CC3)ns2)CCS1
cytotoxicity at 70.5 h: -1.41%

O=C(NCCOc1ncc(Cl)cc1Cl)NCc1ccncc1
cytotoxicity at 70.5 h: -1.68%

O=C(CCc1ccncc1)NCCOc1ncc(Cl)cc1Cl
cytotoxicity at 70.5 h: -6.13%

Cc1nccn1-c1cc(CNC(=O)COCC2CC2)ccn1
cytotoxicity at 70.5 h: -6.02%

CC(C)n1cc(CN2CCCN(C(=O)c3ccco3)CC2)cn1
cytotoxicity at 70.5 h: 21%

Cc1cccc(N(CCC(N)=O)CC(=O)Nc2cc(Cl)ccc2Cl)c1
cytotoxicity at 70.5 h: -5.69%

Cc1ccc(C(=O)NCCCn2cncn2)c(=O)[nH]1
cytotoxicity at 70.5 h: 21.9%

COc1c(C)cnc(CN(C)C(=O)c2cccc(NC(N)=O)c2)c1C
cytotoxicity at 70.5 h: -2.3%

Cc1cccc(N(CCC(N)=O)CC(=O)NC2CCCC2)c1
cytotoxicity at 70.5 h: 18%

COCc1cccc(NC(=O)N(C)Cc2ncc(C)c(OC)c2C)c1
cytotoxicity at 70.5 h: -3.88%

CC1CN(C)CCN1C(=O)c1ccc(-n2cnnc2)cc1 (stereo not drawn)
cytotoxicity at 70.5 h: -1.59%

COc1c(C)cnc(CN(C)C(=O)Nc2ccc3c(c2)CCO3)c1C
cytotoxicity at 70.5 h: 19%

COC(=O)c1ccc(NC(=O)CCc2ccncc2)c(C)c1
cytotoxicity at 70.5 h: -11.9%

Cc1ccoc1C(=O)N(CCN(C)C)Cc1ccccn1
cytotoxicity at 70.5 h: -2.01%

COc1ccccc1C(C)CC(=O)N1CCCS1(=O)=O (stereo not drawn)
cytotoxicity at 70.5 h: -5.37%

Cc1cc(C(C)NC(=O)Cn2nc(C)c3ccccc3c2=O)c(C)o1 (stereo not drawn)
cytotoxicity at 70.5 h: 18.3%

CC(C)c1cc(C(=O)NCC2(C(N)=O)CCOCC2)nn1C(C)(C)C
cytotoxicity at 70.5 h: -4.75%

CC1CCN(CC(=O)NC(C#N)c2cnn(-c3ccccc3)c2)CC1 (stereo not drawn)
cytotoxicity at 70.5 h: -2.96%

Cc1cc(N2CCC(NC(C)Cc3ccsc3)CC2)nc(C)n1 (stereo not drawn)
cytotoxicity at 70.5 h: -2.86%

COc1cccc(F)c1C(C)NC(=O)NCc1cc(C(C)C)no1 (stereo not drawn)
cytotoxicity at 70.5 h: -12.9%

COCCN(CCOC)c1ncccc1I
cytotoxicity at 70.5 h: -4.47%

COC(=O)CCC(=O)NC1CCCc2cc(OC(F)F)ccc21 (stereo not drawn)
cytotoxicity at 70.5 h: -13%

Cc1ccc(S(=O)(=O)NC(=O)CCOCc2ccccc2)s1
cytotoxicity at 70.5 h: -10.6%

CCC(Nc1nnnn1-c1ccccc1)C(=O)Nc1ccccc1C (stereo not drawn)
cytotoxicity at 70.5 h: -11%

Cc1cccc(-c2nnc(C(C)N3CCn4c(C)nnc4C3)o2)c1 (stereo not drawn)
cytotoxicity at 70.5 h: -12.4%

Cc1cc(OCc2cccc(F)c2)ccc1NC(=O)C(C)NC(N)=O (stereo not drawn)
cytotoxicity at 70.5 h: 5.5%

CCC(Nc1nnnn1-c1ccccc1)C(=O)NC1CCSCC1 (stereo not drawn)
cytotoxicity at 70.5 h: -9.32%

CCc1ccc(C(=O)O)cc1S(=O)(=O)Nc1ccc(=O)n(C)c1
cytotoxicity at 70.5 h: 5.54%

Cc1ccc(CNC(c2cccc(F)c2)c2nccn2C)o1 (stereo not drawn)
cytotoxicity at 70.5 h: -3%
